Legend:
Experiment in all cases: KINOMEscan competition binding
Settings in all cases: compound 10.0 µM
STK32B (human) = STK32B (human) (UniProt Q9NY57)
RPS6KA1 KD2 (human) = RPS6KA1 KD2 (human) (UniProt Q15418)
CDK15 (human) = CDK15 (human) (UniProt Q96Q40)
CHEK1 (human) = CHEK1 (human) (UniProt O14757)
STK24 (human) = STK24 (human) (UniProt Q9Y6E0)
CSNK1G2 (human) = CSNK1G2 (human) (UniProt P78368)
MELK (human) = MELK (human) (UniProt Q14680)
MAP3K9 (human) = MAP3K9 (human) (UniProt P80192)
MAP4K4 (human) = MAP4K4 (human) (UniProt O95819)
CLK1 (human) = CLK1 (human) (UniProt P49759)
MAP4K2 (human) = MAP4K2 (human) (UniProt Q12851)
CDK9 (human) = CDK9 (human) (UniProt P50750)
PAK1 (human) = PAK1 (human) (UniProt Q13153)
PRKCD (human) = PRKCD (human) (UniProt Q05655)
CAMK2D (human) = CAMK2D (human) (UniProt Q13557)
FGFR2 (human) = FGFR2 (human) (UniProt P21802)
CLK4 (human) = CLK4 (human) (UniProt Q9HAZ1)
STK4 (human) = STK4 (human) (UniProt Q13043)
PRKCQ (human) = PRKCQ (human) (UniProt Q04759)
DDR1 (human) = DDR1 (human) (UniProt Q08345)
MAPK13 (human) = MAPK13 (human) (UniProt O15264)
BLK (human) = BLK (human) (UniProt P51451)
KDR (human) = KDR (human) (UniProt P35968)
CDC2L2 (human) = CDC2L2 (human) (UniProt Q9UQ88)
ULK3 (human) = ULK3 (human) (UniProt Q6PHR2)
PKN1 (human) = PKN1 (human) (UniProt Q16512)
BRSK2 (human) = BRSK2 (human) (UniProt Q8IWQ3)
HIPK1 (human) = HIPK1 (human) (UniProt Q86Z02)
PTK6 (human) = PTK6 (human) (UniProt Q13882)
CAMK1D (human) = CAMK1D (human) (UniProt Q8IU85)
MYLK (human) = MYLK (human) (UniProt Q15746)
HUNK (human) = HUNK (human) (UniProt P57058)
STK38 (human) = STK38 (human) (UniProt Q15208)
CDKL3 (human) = CDKL3 (human) (UniProt Q8IVW4)
MAP3K6 (human) = MAP3K6 (human) (UniProt O95382)
MAP3K13 (human) = MAP3K13 (human) (UniProt O43283)
STK39 (human) = STK39 (human) (UniProt Q9UEW8)
GRK1 (human) = GRK1 (human) (UniProt Q15835)

CAMK2D (human), sequence (Q13557 whole entry, looked up): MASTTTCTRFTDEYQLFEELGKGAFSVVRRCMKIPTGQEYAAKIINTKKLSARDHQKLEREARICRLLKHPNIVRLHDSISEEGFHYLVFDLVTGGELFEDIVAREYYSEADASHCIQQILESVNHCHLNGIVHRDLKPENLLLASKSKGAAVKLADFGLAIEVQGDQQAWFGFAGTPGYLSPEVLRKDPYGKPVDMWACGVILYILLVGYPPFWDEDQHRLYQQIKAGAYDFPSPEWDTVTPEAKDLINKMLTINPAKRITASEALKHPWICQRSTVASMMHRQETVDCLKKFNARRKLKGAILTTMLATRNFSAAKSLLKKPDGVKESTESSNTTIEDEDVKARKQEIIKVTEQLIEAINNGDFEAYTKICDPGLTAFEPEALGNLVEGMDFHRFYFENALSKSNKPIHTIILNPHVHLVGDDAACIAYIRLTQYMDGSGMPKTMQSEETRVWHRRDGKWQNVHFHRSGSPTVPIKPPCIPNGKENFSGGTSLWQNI
STK24 (human), sequence (Q9Y6E0 whole entry, looked up): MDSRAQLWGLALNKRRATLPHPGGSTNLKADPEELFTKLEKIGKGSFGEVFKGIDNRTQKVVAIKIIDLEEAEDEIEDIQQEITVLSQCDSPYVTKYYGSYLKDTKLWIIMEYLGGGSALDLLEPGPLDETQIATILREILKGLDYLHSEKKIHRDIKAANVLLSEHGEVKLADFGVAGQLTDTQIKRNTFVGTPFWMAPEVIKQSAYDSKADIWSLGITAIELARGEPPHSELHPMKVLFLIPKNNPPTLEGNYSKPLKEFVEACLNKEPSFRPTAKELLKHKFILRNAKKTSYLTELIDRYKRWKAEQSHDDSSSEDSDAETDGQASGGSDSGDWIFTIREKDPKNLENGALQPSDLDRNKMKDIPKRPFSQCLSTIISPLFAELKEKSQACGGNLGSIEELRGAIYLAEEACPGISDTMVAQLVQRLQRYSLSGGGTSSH
MELK (human), sequence (Q14680 whole entry, looked up): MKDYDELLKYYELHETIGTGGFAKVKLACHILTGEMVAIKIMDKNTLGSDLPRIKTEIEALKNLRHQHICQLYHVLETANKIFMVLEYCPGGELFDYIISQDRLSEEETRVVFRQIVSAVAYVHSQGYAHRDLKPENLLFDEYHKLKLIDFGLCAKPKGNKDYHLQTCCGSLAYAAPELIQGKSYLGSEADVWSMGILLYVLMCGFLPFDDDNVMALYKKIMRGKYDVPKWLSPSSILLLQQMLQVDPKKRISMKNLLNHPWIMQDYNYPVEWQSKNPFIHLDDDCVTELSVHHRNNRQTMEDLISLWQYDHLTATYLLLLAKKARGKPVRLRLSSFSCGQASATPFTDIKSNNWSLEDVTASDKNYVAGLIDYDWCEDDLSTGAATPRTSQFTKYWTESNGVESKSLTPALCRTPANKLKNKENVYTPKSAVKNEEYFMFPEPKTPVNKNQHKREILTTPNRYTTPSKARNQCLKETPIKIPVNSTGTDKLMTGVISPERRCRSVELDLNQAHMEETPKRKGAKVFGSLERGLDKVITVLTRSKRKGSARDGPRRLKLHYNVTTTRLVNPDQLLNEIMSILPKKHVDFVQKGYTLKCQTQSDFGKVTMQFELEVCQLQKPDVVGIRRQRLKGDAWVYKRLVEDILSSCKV
FGFR2 (human), sequence (P21802 whole entry, looked up): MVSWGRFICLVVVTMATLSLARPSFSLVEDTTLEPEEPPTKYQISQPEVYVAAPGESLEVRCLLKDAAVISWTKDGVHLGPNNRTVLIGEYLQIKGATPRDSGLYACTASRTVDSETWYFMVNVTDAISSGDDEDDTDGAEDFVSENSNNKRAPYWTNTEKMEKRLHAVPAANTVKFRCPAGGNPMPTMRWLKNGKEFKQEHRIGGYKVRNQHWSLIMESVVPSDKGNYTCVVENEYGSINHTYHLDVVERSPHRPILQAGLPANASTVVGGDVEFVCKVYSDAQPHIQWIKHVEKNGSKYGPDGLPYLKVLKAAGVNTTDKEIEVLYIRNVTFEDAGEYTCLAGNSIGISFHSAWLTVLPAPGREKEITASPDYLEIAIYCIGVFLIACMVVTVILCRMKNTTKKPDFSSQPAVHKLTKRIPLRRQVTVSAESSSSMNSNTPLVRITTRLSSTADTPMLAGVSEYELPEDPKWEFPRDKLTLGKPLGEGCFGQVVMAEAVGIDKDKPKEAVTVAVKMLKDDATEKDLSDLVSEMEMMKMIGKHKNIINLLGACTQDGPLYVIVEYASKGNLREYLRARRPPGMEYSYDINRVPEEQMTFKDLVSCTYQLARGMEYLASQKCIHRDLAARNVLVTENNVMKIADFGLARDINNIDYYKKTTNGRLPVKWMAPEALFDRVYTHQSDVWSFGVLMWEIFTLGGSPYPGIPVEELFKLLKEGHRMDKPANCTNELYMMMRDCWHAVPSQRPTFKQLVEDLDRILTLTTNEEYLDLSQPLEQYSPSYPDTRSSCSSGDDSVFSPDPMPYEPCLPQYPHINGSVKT
PRKCQ (human), sequence (Q04759 whole entry, looked up): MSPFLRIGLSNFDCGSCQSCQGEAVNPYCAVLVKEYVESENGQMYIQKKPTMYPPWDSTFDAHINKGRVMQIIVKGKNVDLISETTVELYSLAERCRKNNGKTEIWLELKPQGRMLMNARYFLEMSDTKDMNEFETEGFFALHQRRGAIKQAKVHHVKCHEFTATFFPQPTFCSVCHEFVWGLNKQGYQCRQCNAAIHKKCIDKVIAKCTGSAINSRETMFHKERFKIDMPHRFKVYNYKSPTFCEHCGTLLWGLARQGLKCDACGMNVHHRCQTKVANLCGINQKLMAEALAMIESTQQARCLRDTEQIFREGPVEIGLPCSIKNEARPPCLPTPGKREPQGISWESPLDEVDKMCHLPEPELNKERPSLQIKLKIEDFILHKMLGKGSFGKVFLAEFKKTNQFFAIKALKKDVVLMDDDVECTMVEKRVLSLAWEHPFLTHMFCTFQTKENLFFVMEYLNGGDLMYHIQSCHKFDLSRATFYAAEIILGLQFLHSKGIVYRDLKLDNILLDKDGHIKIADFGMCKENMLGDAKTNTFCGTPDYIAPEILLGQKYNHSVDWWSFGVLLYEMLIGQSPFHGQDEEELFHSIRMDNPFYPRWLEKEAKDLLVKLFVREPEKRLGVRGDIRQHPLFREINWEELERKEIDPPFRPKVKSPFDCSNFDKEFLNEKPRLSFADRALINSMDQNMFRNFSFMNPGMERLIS
MAP3K9 (human), sequence (P80192 whole entry, looked up): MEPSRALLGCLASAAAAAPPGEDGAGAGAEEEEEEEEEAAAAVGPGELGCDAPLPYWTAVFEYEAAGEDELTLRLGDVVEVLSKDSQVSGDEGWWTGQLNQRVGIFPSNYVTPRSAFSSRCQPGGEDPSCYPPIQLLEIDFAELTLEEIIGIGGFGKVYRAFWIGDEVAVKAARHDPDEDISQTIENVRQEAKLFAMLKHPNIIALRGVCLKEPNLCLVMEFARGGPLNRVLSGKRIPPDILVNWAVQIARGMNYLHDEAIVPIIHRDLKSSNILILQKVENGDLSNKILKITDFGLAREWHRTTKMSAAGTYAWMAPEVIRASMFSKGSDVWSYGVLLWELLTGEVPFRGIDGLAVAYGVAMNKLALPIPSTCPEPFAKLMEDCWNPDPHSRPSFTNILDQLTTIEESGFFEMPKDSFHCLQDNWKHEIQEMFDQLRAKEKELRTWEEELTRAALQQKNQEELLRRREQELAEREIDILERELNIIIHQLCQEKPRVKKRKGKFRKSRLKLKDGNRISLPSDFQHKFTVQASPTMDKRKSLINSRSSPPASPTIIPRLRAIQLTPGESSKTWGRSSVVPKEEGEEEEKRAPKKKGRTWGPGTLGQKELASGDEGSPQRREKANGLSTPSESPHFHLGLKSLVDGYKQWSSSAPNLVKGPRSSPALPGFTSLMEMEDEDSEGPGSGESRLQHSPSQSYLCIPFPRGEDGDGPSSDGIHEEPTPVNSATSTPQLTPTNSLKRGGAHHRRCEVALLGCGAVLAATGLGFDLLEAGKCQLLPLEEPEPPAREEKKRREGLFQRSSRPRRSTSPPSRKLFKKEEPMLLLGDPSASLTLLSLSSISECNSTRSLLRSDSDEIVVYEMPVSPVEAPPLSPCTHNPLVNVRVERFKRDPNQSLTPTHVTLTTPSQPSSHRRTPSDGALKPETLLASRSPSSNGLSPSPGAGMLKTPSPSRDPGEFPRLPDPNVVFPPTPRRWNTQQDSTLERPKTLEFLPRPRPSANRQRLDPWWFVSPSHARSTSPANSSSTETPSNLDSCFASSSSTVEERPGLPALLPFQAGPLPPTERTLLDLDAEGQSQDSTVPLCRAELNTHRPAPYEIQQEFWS
BRSK2 (human), sequence (Q8IWQ3 whole entry, looked up): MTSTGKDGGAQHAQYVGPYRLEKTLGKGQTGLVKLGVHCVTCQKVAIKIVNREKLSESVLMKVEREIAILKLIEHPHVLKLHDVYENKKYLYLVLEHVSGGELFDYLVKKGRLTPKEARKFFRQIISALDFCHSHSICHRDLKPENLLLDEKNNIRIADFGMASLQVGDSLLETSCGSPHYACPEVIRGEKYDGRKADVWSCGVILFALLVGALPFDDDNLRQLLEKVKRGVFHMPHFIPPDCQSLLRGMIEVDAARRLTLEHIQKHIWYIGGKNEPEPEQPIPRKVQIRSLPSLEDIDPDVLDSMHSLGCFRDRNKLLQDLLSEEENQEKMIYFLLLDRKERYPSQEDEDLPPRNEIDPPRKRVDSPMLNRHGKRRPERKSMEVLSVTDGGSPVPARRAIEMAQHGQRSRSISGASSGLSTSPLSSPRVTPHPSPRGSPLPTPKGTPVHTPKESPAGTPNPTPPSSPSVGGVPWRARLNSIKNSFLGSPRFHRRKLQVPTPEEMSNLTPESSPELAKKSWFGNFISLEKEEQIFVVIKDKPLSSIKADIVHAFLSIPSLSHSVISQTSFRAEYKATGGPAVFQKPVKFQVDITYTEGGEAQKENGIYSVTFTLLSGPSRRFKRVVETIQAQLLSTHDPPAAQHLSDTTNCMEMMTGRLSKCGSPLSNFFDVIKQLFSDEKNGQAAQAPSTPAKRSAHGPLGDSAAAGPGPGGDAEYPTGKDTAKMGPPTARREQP

## C=CC(=O)Nc1ccc(CN(C(=O)Nc2c(Cl)c(OC)cc(OC)c2Cl)c2cc(Nc3ccc(N4CCN(C)CC4)cc3)ncn2)cc1
STK32B (human)
  kinase still bound, per cent of control: 100%
RPS6KA1 KD2 (human)
  kinase still bound, per cent of control: 100%
CDK15 (human)
  kinase still bound, per cent of control: 100%
CHEK1 (human)
  kinase still bound, per cent of control: 100%
STK24 (human)
  kinase still bound, per cent of control: 18%
CSNK1G2 (human)
  kinase still bound, per cent of control: 100%
MELK (human)
  kinase still bound, per cent of control: 100%
MAP3K9 (human)
  kinase still bound, per cent of control: 12%
MAP4K4 (human)
  kinase still bound, per cent of control: 100%
CLK1 (human)
  kinase still bound, per cent of control: 100%
MAP4K2 (human)
  kinase still bound, per cent of control: 100%
CDK9 (human)
  kinase still bound, per cent of control: 100%
PAK1 (human)
  kinase still bound, per cent of control: 100%
PRKCD (human)
  kinase still bound, per cent of control: 100%
CAMK2D (human)
  kinase still bound, per cent of control: 100%
FGFR2 (human)
  kinase still bound, per cent of control: 1.9%
CLK4 (human)
  kinase still bound, per cent of control: 100%
STK4 (human)
  kinase still bound, per cent of control: 100%
PRKCQ (human)
  kinase still bound, per cent of control: 100%
DDR1 (human)
  kinase still bound, per cent of control: 0%
MAPK13 (human)
  kinase still bound, per cent of control: 4.9%
BLK (human)
  kinase still bound, per cent of control: 0.1%
KDR (human)
  kinase still bound, per cent of control: 0.45%
CDC2L2 (human)
  kinase still bound, per cent of control: 100%
ULK3 (human)
  kinase still bound, per cent of control: 100%
PKN1 (human)
  kinase still bound, per cent of control: 100%
BRSK2 (human)
  kinase still bound, per cent of control: 100%
HIPK1 (human)
  kinase still bound, per cent of control: 100%
PTK6 (human)
  kinase still bound, per cent of control: 100%
CAMK1D (human)
  kinase still bound, per cent of control: 100%
MYLK (human)
  kinase still bound, per cent of control: 100%

## CS(=O)(=O)N1CCN(Cc2cc3nc(-c4cccc5[nH]ncc45)nc(N4CCOCC4)c3s2)CC1
HUNK (human)
  kinase still bound, per cent of control: 100%
STK32B (human)
  kinase still bound, per cent of control: 100%
RPS6KA1 KD2 (human)
  kinase still bound, per cent of control: 100%
STK38 (human)
  kinase still bound, per cent of control: 100%
CDK15 (human)
  kinase still bound, per cent of control: 100%
CHEK1 (human)
  kinase still bound, per cent of control: 100%
STK24 (human)
  kinase still bound, per cent of control: 100%
CSNK1G2 (human)
  kinase still bound, per cent of control: 100%
MELK (human)
  kinase still bound, per cent of control: 100%
CDKL3 (human)
  kinase still bound, per cent of control: 100%
MAP3K9 (human)
  kinase still bound, per cent of control: 100%
MAP4K4 (human)
  kinase still bound, per cent of control: 100%
MAP3K6 (human)
  kinase still bound, per cent of control: 100%
MAP4K2 (human)
  kinase still bound, per cent of control: 100%
MAP3K13 (human)
  kinase still bound, per cent of control: 100%
CDK9 (human)
  kinase still bound, per cent of control: 100%
PAK1 (human)
  kinase still bound, per cent of control: 100%
PRKCD (human)
  kinase still bound, per cent of control: 100%
CAMK2D (human)
  kinase still bound, per cent of control: 100%
FGFR2 (human)
  kinase still bound, per cent of control: 100%
STK4 (human)
  kinase still bound, per cent of control: 100%
PRKCQ (human)
  kinase still bound, per cent of control: 100%
DDR1 (human)
  kinase still bound, per cent of control: 100%
MAPK13 (human)
  kinase still bound, per cent of control: 100%
BLK (human)
  kinase still bound, per cent of control: 100%
KDR (human)
  kinase still bound, per cent of control: 100%
CDC2L2 (human)
  kinase still bound, per cent of control: 100%
ULK3 (human)
  kinase still bound, per cent of control: 100%
PKN1 (human)
  kinase still bound, per cent of control: 100%
BRSK2 (human)
  kinase still bound, per cent of control: 100%
STK39 (human)
  kinase still bound, per cent of control: 100%
HIPK1 (human)
  kinase still bound, per cent of control: 100%
GRK1 (human)
  kinase still bound, per cent of control: 100%
PTK6 (human)
  kinase still bound, per cent of control: 100%
CAMK1D (human)
  kinase still bound, per cent of control: 100%
MYLK (human)
  kinase still bound, per cent of control: 100%

## CNC(=O)c1ccc(Nc2cc(Nc3ccccc3S(=O)(=O)C(C)C)c3cc[nH]c3n2)nc1
STK32B (human)
  kinase still bound, per cent of control: 100%
RPS6KA1 KD2 (human)
  kinase still bound, per cent of control: 100%
CDK15 (human)
  kinase still bound, per cent of control: 18%
CHEK1 (human)
  kinase still bound, per cent of control: 100%
STK24 (human)
  kinase still bound, per cent of control: 100%
CSNK1G2 (human)
  kinase still bound, per cent of control: 3.1%
MELK (human)
  kinase still bound, per cent of control: 100%
MAP3K9 (human)
  kinase still bound, per cent of control: 0.85%
MAP4K4 (human)
  kinase still bound, per cent of control: 31%
CLK1 (human)
  kinase still bound, per cent of control: 0.15%
MAP4K2 (human)
  kinase still bound, per cent of control: 11%
CDK9 (human)
  kinase still bound, per cent of control: 100%
PAK1 (human)
  kinase still bound, per cent of control: 100%
PRKCD (human)
  kinase still bound, per cent of control: 15%
CAMK2D (human)
  kinase still bound, per cent of control: 100%
FGFR2 (human)
  kinase still bound, per cent of control: 25%
CLK4 (human)
  kinase still bound, per cent of control: 0.35%
STK4 (human)
  kinase still bound, per cent of control: 4.2%
PRKCQ (human)
  kinase still bound, per cent of control: 24%
DDR1 (human)
  kinase still bound, per cent of control: 100%
MAPK13 (human)
  kinase still bound, per cent of control: 100%
BLK (human)
  kinase still bound, per cent of control: 0.55%
KDR (human)
  kinase still bound, per cent of control: 100%
CDC2L2 (human)
  kinase still bound, per cent of control: 100%
ULK3 (human)
  kinase still bound, per cent of control: 3.7%
PKN1 (human)
  kinase still bound, per cent of control: 0%
BRSK2 (human)
  kinase still bound, per cent of control: 100%
HIPK1 (human)
  kinase still bound, per cent of control: 100%
PTK6 (human)
  kinase still bound, per cent of control: 25%
CAMK1D (human)
  kinase still bound, per cent of control: 100%
MYLK (human)
  kinase still bound, per cent of control: 100%
